Key:
[1] = test system: female stress-derived axillary odor; experiment: Cross-adaptation of female stress-derived axillary odor (odor panel, magnitude estimation of perceived intensity); assay type: in vivo, human; settings: for Magnitude of Reduction of Intensity of Female Stress-Derived Odor (FSDO), Males: female stress-derived odor perceived by men; for Magnitude of Reduction of Intensity of Female Stress-Derived Odor (FSDO), Females: female stress-derived odor perceived by women
Excerpt: (§1) The procedure relies upon an individual constantly sniffing an adapting agent, such as a fragrance, and occasionally a test odorant. Perceived intensity of the test odorant is obtained by using psychophysical, magnitude-estimation procedures. These perceived intensities are obtained every 30 seconds over the test period, and are then compared with baseline perceived intensities obtained before the individual began sniffing the adapting agent. Throughout the testing we observe adaptation to the adapting agent. Results during trials with an inserted test odorant, such as the axillary odor used here, are believed to be reasonably predictive. If the perceived intensity of the test odorant decreases during the test, then the adapting agent cross-adapts the test odorant and becomes a cross-adapting agent. If the cross-adapting agent is itself not offensive, then the cross-adapting agent becomes a candidate for use in formulations in consumer products to ameliorate malodors, such as axillary odor or fecal/urine odors, and odors related to the female menstrual cycle.
(§2) Collection of secretions: Apocrine secretions obtained under stressed conditions provided the axillary odor that was used as the test odorant to evaluate the effectiveness of various adapting agents. Secretions were obtained from males (ages 20 to 60 years) and females (ages 20 to 40 years) in good health. […] Volunteers prepared their axillae for collection of apocrine secretions by refraining from deodorant use for 3 days and shaving their axillae the morning of the collection day.
(§3) Volunteers were rested in a supine position. The axillary regions were washed with isopropanol-soaked pads and injected intradermally with 1:10,000 adrenalin (in physiologic saline). This injection stimulated the secretion of apocrine gland secretions, which were collected in 10 μl pipettes, passed into 0.25 ml Eppendorf tubes, and stored on ice (or frozen for longer storage). The amount of secretion collected varied greatly with the individual subject (≦10 μl). The apocrine secretions from each volunteer were combined by consecutively washing each Eppendorf tube with 2×300 μl of doubly distilled water. This aqueous-apocrine fluid was transferred to a 5 ml round-bottomed flask for hydrolysis. X-N. Zeng, J. J. Leyden, J. G. Brand, A. I. Spielman, K. J. McGinley, G. Preti, An Investigation of Human Apocrine Gland Secretion for Axillary Odor Precursors, 18 J. Chem. Ecol. 1039-1055 (1992); X-N. Zeng, J. J. Leyden, A. I. Spielman and G. Preti Analysis of the characteristic human female axillary odors: Qualitative comparison to males. 22 J. Chem. Ecol. 237-257 (1996).
(§4) Production of odor: To produce quantities of stress-derived axillary odor for testing purposes, we hydrolyzed the apocrine secretion. The aqueous solution was refluxed for 20 min with 0.5 ml, 5% aqueous sodium hydroxide under a stream of nitrogen. The mixture was allowed to cool to room temperature, and then it was cooled in ice prior to being acidified with 6 N HCl to pH 2. The resulting axillary odor developed in the reaction mixture upon acidification was used as the test odorant. The axillary odors generated by this in vitro technique are analogous to the malodors produced by stressed individuals.
A separate panel of 24 subjects (12 males and 12 females) tested samples of female stress-derived axillary odor with potential cross-adapting agents, some of which were not included in Example 1 above. Some of the subjects assessing the effectiveness of cross-adaptation of male stress-derived axillary odor were also used in the experiment with female secretions. However, these two experiments were treated as independent events. All panel members were screened for adequate use of magnitude estimation and further trained in its use during two to three training sessions. […]

[2] = test system: male stress-derived axillary odor; experiment: Cross-adaptation of male stress-derived axillary odor (odor panel, magnitude estimation of perceived intensity); assay type: in vivo, human; settings: for Magnitude of Reduction of Intensity of Male Stress-Derived Odor (MSDO), Males: male stress-derived odor perceived by men; for Magnitude of Reduction of Intensity of Male Stress-Derived Odor (MSDO), Females: male stress-derived odor perceived by women
Excerpt: as §1, §2, §3, §4
Sixteen (16) individuals (8 of each gender) served on an odor panel. Subjects ranged in age from 22 to 55 years (mean 32.7±10.6 s.d.), were not pregnant (by verbal report), and were all non-smokers. All panel members were screened for adequate use of magnitude estimation (some people have difficulties maintaining a ratio scale, i.e., when an odorant is half as strong as the previous, these people fail to provide a number that is half the previous estimate) and further trained in its use during 2-3 training sessions. All 16 subjects were tested with samples of male malodor compared to each of the potential cross-adapting agents. […]
Note: key: best: Best = Superior Cross-Adaptation; good: Good = Adequate Cross-Adaptation; poor: Poor = Ineffective Cross-Adaptation.

Compound	Magnitude of Reduction of Intensity of Female Stress-Derived Odor (FSDO), Males [1]	Magnitude of Reduction of Intensity of Female Stress-Derived Odor (FSDO), Females [1]	Magnitude of Reduction of Intensity of Male Stress-Derived Odor (MSDO), Males [2]	Magnitude of Reduction of Intensity of Male Stress-Derived Odor (MSDO), Females [2]
C=CCOC(=O)COC1CCCCC1 [Isoananat, allyl cyclohexyloxyacetate]	good	poor	best	poor
CC(=O)O[C@@H]1C[C@H](C)CC[C@H]1C(C)C [Menthyl Acetate rf, 4-menthyl-3-yl acetate]	good	good	best	poor
CC(=O)OC1CCC(C(C)(C)C)CC1 (stereo not drawn) [Oryclone Special, 4-tertbutylcyclohexyl acetate]	best	poor	good	poor
OCCc1ccccc1 [Phenylethyl Alcohol, phenylethyl alcohol]	good	poor	good	good
CC(CO)CCCc1ccccc1 (stereo not drawn) [Rosaphen ®, 2-methyl-5-phenylpentan-1-ol]	good	poor	best	poor
CC(C)=CC1CC(C)CCO1 (stereo not drawn) [Rose Oxide hc, 4-methyl-2-(2-methyl-1-propenyl)tetrahydro-2H-pyran]	good	good	poor	good
CCC(=CCC1CC=C(C)C1(C)C)CO (stereo not drawn) [Sandranol ®, 2-ethyl-4-(2,2,3-trimethyl-3-cyclopenten-1-yl)-2-buten-1-ol]	good	good	good	poor
CC1=CC(C)C(C=O)CC1 (stereo not drawn) [Vertocitral, 2,4-dimethyl-3-cyclohexene-1-carboxaldehyde]	best	best	good	best
O=C1CCCCCCCCCCCCCCO1 [cpd Supra, oxacyclohexadecan-2-one]	good	good	poor	poor
CC=CC(=O)C1C(C)=CCCC1(C)C (stereo not drawn) [α-Damascone, 1-(2,6,6-trimethyl-2-cyclohexen-1-yl)-2-buten-1-one]	poor	good	poor	poor
l-carvone	good	best	best	best
oxacyclohexadecen-2-one [GLOBALIDE ®]	poor	good	good	poor
